Source: patent US6372446B1, “Method of selectively determining a fungal biomass” (Mycometer ApS, priority 1997, dated 2002)

How the values were obtained:
[1] = tested on: Aureobasidium pullulans (QM 3092); test: Screening of fungi for enzyme activity with 4-methylumbelliferone-labelled substrates; format: cell-based; details: substrate 10 μM, 25° C., pH 5; for Enzyme activity: amount of released 4-methylumbelliferone during 5 hours of incubation: Aureobasidium pulluians (QM 3092), vegetable juice medium; for Enzyme activity: amount of released 4-methylumbelliferone: Aureobasidium pullulans (QM 3092), mineral medium
[2] = tested on: Paecilomyces farinosus (AGM 5); test: as above; format: cell-based; details: substrate 10 μM, 25° C., pH 5; for Enzyme activity: amount of released 4-methylumbelliferone: mineral medium; for Enzyme activity: amount of released 4-methylumbelliferone during 5 hours of incubation: vegetable juice medium
[3] = tested on: Cladosporium herbarum (AGM 8); test: as above; format: cell-based; details: substrate 10 μM, 25° C., pH 5; for Enzyme activity: amount of released 4-methylumbelliferone: mineral medium; for Enzyme activity: amount of released 4-methylumbelliferone during 5 hours of incubation: vegetable juice medium
[4] = tested on: Penicillium commune (IBT 13713); test: as above; format: cell-based; details: substrate 10 μM, 25° C., pH 5; for Enzyme activity: amount of released 4-methylumbelliferone: mineral medium; for Enzyme activity: amount of released 4-methylumbelliferone during 5 hours of incubation: vegetable juice medium
[5] = tested on: Penicillium solitum (IBT 13771); test: as above; format: cell-based; details: substrate 10 μM, 25° C., pH 5; for Enzyme activity: amount of released 4-methylumbelliferone: mineral medium; for Enzyme activity: amount of released 4-methylumbelliferone during 5 hours of incubation: vegetable juice medium
[6] = tested on: Aspergillus oryzae (AGM 11); test: as above; format: cell-based; details: substrate 10 μM, 25° C., pH 5; for Enzyme activity: amount of released 4-methylumbelliferone: mineral medium; for Enzyme activity: amount of released 4-methylumbelliferone during 5 hours of incubation: vegetable juice medium
[7] = tested on: Mucor racemosus (AAS 310); test: as above; format: cell-based; details: substrate 10 μM, 25° C., pH 5; for Enzyme activity: amount of released 4-methylumbelliferone: mineral medium; for Enzyme activity: amount of released 4-methylumbelliferone during 5 hours of incubation: vegetable juice medium
[8] = tested on: Ascobolus crenulatus (AAS 1); test: as above; format: cell-based; details: substrate 10 μM, 25° C., pH 5; for Enzyme activity: amount of released 4-methylumbelliferone: mineral medium; for Enzyme activity: amount of released 4-methylumbelliferone during 5 hours of incubation: vegetable juice medium
[9] = tested on: Trametes versicolor (AGM 24); test: as above; format: cell-based; details: substrate 10 μM, 25° C., pH 5; for Enzyme activity: amount of released 4-methylumbelliferone: mineral medium; for Enzyme activity: amount of released 4-methylumbelliferone during 5 hours of incubation: vegetable juice medium
[10] = tested on: Rhizomucor pusillus (AAS 300); test: as above; format: cell-based; details: substrate 10 μM, 25° C., pH 5; for Enzyme activity: amount of released 4-methylumbelliferone: mineral medium; for Enzyme activity: amount of released 4-methylumbelliferone during 5 hours of incubation: vegetable juice medium
[11] = tested on: Schizophyllum commune (AGM 25); test: as above; format: cell-based; details: substrate 10 μM, 25° C., pH 5; for Enzyme activity: amount of released 4-methylumbelliferone: mineral medium; for Enzyme activity: amount of released 4-methylumbelliferone during 5 hours of incubation: vegetable juice medium
[12] = tested on: Sodaria fimicola (AAS 17); test: as above; format: cell-based; details: substrate 10 μM, 25° C., pH 5; for Enzyme activity: amount of released 4-methylumbelliferone: mineral medium; for Enzyme activity: amount of released 4-methylumbelliferone during 5 hours of incubation: vegetable juice medium
Eurotium sp. (AAS 36) = test: as above; format: cell-based; details: substrate 10 μM, 25° C., pH 5; for Enzyme activity: amount of released 4-methylumbelliferone: mineral medium; for Enzyme activity: amount of released 4-methylumbelliferone during 5 hours of incubation: vegetable juice medium
[13] = tested on: Aspergillus versicolor (IBT 13738); test: as above; format: cell-based; details: substrate 10 μM, 25° C., pH 5; for Enzyme activity: amount of released 4-methylumbelliferone: mineral medium; for Enzyme activity: amount of released 4-methylumbelliferone during 5 hours of incubation: vegetable juice medium
human hexosaminidase = test: Cleavage of substrate in human blood and plasma samples; format: biochemical
From the text: The diagnostic method detects fungal β-N-acetylhexosaminidase activity in human plasma. […] However, it was discovered that this human hexosaminidase activity can be eliminated by a pre-treatment step comprising precipitation e.g. by adding ammonium sulphate (70% saturation) to the human plasma samples. […] In the samples containing C. albicans culture fluid more than 75% of the fungal β-N-acetylhexosaminidase activity remained after precipitation step to eliminate interfering human enzyme activity. […] After incubation, 300 μl Tris buffer (2.5 M) was added to the mixture to increase the pH to above 9 and the fluorescence measured. This procedure was tested on plasma from different control subjects with no known previous fungal infections. Culture fluids from cultivation of C. albicans or of A. fumigatus containing β-N-acetylhexosaminidase activity were added to the plasma samples. […] After the incubation, Tris buffer was added and the fluorescence formed was measured against the control samples. The presence of fungal β-N-acetylhexosaminidase activity was detected and the fluorescence was proportional to the amount of fungal β-N-acetylhexosaminidase added.

all fungi tested = test: Screening of a diverse selection of fungi for ability to degrade 11 substrates (summary); format: cell-based; details: mineral medium and vegetable juice medium
Experimental: A number of fungi representing different taxonomic groupings were screened for enzyme activity. The fungi were grown for in 24 well plates (Nunclon Multidish, Life Technologies A/S) (well volume 3.4 ml) containing 1.5 ml of agarized growth medium. After a growth period of 10 days at 25° C., 1.5 ml citrate-phosphat buffer (pH 5) were added to the wells and one of 11 enzyme substrates were then added to each well and incubated for 5 hours at 25° C. after which the fluorescence of each well was measured. For each fungus two wells were incubated with each enzyme substrate. All substrates were used in a final concentration of 10 μM. The substrate only and the organism plus the agarized medium were included as controls. […] The fungi subjected to the assaying procedure were all obtained from the culture collection of the Department of General Microbiology at the University of Copenhagen, Denmark.

Compound	Enzyme activity: amount of released 4-methylumbelliferone during 5 hours of incubation [1]	Enzyme activity: amount of released 4-methylumbelliferone [1]	Enzyme activity: amount of released 4-methylumbelliferone [2]	Enzyme activity: amount of released 4-methylumbelliferone during 5 hours of incubation [2]	Enzyme activity: amount of released 4-methylumbelliferone [3]	Enzyme activity: amount of released 4-methylumbelliferone during 5 hours of incubation [3]	Enzyme activity: amount of released 4-methylumbelliferone [4]	Enzyme activity: amount of released 4-methylumbelliferone during 5 hours of incubation [4]	Enzyme activity: amount of released 4-methylumbelliferone [5]	Enzyme activity: amount of released 4-methylumbelliferone during 5 hours of incubation [5]	Enzyme activity: amount of released 4-methylumbelliferone [6]	Enzyme activity: amount of released 4-methylumbelliferone during 5 hours of incubation [6]	Enzyme activity: amount of released 4-methylumbelliferone [7]	Enzyme activity: amount of released 4-methylumbelliferone during 5 hours of incubation [7]	Enzyme activity: amount of released 4-methylumbelliferone [8]	Enzyme activity: amount of released 4-methylumbelliferone during 5 hours of incubation [8]	Enzyme activity: amount of released 4-methylumbelliferone [9]	Enzyme activity: amount of released 4-methylumbelliferone during 5 hours of incubation [9]	Enzyme activity: amount of released 4-methylumbelliferone [10]	Enzyme activity: amount of released 4-methylumbelliferone during 5 hours of incubation [10]	also measured
CC(=O)N[C@H]1[C@H](Oc2ccc3c(C)cc(=O)oc3c2)O[C@H](CO)[C@@H](O)[C@@H]1O [substrate 3, 4-methylumbelliferyl N-acetyl-β-D-blucosaminide]	*** (2 ≦ ***)	*** (2 ≦ ***)	*** (2 ≦ ***)	*** (2 ≦ ***)	** (1 ≦ ** 2)	** (1 ≦ ** 2)	** (1 ≦ ** 2)	*** (2 ≦ ***)	*** (2 ≦ ***)	*** (2 ≦ ***)	*** (2 ≦ ***)	*** (2 ≦ ***)	*** (2 ≦ ***)	*** (2 ≦ ***)	*** (2 ≦ ***)	*** (2 ≦ ***)	** (1 ≦ ** 2)	*** (2 ≦ ***)	* (0.4 ≦ * < 1)	*** (2 ≦ ***)	Enzyme activity: amount of released 4-methylumbelliferone [11]: *** (2 ≦ ***); Enzyme activity: amount of released 4-methylumbelliferone during 5 hours of incubation [11]: *** (2 ≦ ***); Enzyme activity: amount of released 4-methylumbelliferone [12]: ** (1 ≦ ** 2); Enzyme activity: amount of released 4-methylumbelliferone during 5 hours of incubation [12]: *** (2 ≦ ***); Enzyme activity: amount of released 4-methylumbelliferone (Eurotium sp. (AAS 36)): *** (2 ≦ ***); Enzyme activity: amount of released 4-methylumbelliferone during 5 hours of incubation (Eurotium sp. (AAS 36)): *** (2 ≦ ***); Enzyme activity: amount of released 4-methylumbelliferone [13]: ** (1 ≦ ** 2); Enzyme activity: amount of released 4-methylumbelliferone during 5 hours of incubation [13]: *** (2 ≦ ***); cleavage by human hexosaminidase (human hexosaminidase): also cleaved by human hexosaminidase; ability to degrade the substrate (all fungi tested): could be demonstrated in all fungi tested
CC(=O)N[C@H]1[C@H](Oc2ccc3c(C)cc(=O)oc3c2)O[C@H](CO)[C@@H](O[C@@H]2O[C@H](CO)[C@@H](O[C@@H]3O[C@H](CO)[C@@H](O)[C@H](O)[C@H]3NC(C)=O)[C@H](O)[C@H]2NC(C)=O)[C@@H]1O [substrate 4, 4-methylumbelliferyl β-D-N,N′,N″triacetylchitotrioside]	*** (2 ≦ ***)	*** (2 ≦ ***)	** (1 ≦ ** 2)	*** (2 ≦ ***)	* (0.4 ≦ * < 1)	* (0.4 ≦ * < 1)	0 µmol	*** (2 ≦ ***)	** (1 ≦ ** 2)	*** (2 ≦ ***)	** (1 ≦ ** 2)	*** (2 ≦ ***)	** (1 ≦ ** 2)	*** (2 ≦ ***)	** (1 ≦ ** 2)	** (1 ≦ ** 2)	** (1 ≦ ** 2)	*** (2 ≦ ***)	*** (2 ≦ ***)	*** (2 ≦ ***)	Enzyme activity: amount of released 4-methylumbelliferone [11]: ** (1 ≦ ** 2); Enzyme activity: amount of released 4-methylumbelliferone during 5 hours of incubation [11]: *** (2 ≦ ***); Enzyme activity: amount of released 4-methylumbelliferone [12]: ** (1 ≦ ** 2); Enzyme activity: amount of released 4-methylumbelliferone during 5 hours of incubation [12]: *** (2 ≦ ***); Enzyme activity: amount of released 4-methylumbelliferone (Eurotium sp. (AAS 36)): ** (1 ≦ ** 2); Enzyme activity: amount of released 4-methylumbelliferone during 5 hours of incubation (Eurotium sp. (AAS 36)): ** (1 ≦ ** 2); Enzyme activity: amount of released 4-methylumbelliferone [13]: * (0.4 ≦ * < 1); Enzyme activity: amount of released 4-methylumbelliferone during 5 hours of incubation [13]: *** (2 ≦ ***); ability to degrade the substrate (all fungi tested): could be demonstrated in all fungi tested
